Laboratory results: patent US12268674B2, “Mi-2β inhibitor as an immunotherapy agent” (BioVentures, LLC, priority 2021, dated 2025)

Columns and labels:
NOP2 = target: T1, NOP2 (Homo sapiens, UniProt P46087); test: ATPase profile (ATP acyl phosphate probe); type: binding; conditions: NOP2, SEQ ID NO: 136, ATP BS
T1 construct: to get the native cell lysate; endogenous in cells; host or cells: A375

NARS = target: T2, NARS (Homo sapiens, UniProt O43776); test: ATPase profile (ATP acyl phosphate probe); type: binding; conditions: SEQ ID NO: 131, ATP BS
T2 construct: to get the native cell lysate; endogenous in cells; host or cells: A375

ABCC1 = target: T3, ABCC1 (Homo sapiens, UniProt P33527); test: ATPase profile (ATP acyl phosphate probe); type: binding
T3 construct: to get the native cell lysate; host or cells: A375 cell lysate

B16F10 melanoma graft = test: Syngeneic melanoma graft mouse model
Experimental: To test Z36-MP5 function in syngeneic mouse model, B16F10 cells (1.5×105) were mixed with BD matrigel (Matrix Growth Factor Reduced) (BD, 354230) in 100 μl PBS, and then mouse subcutaneous injection and tumor graft monitor were performed as described above. Except that vehicle [5% (w/v) Kolliphor HS 15 (Sigma)] in normal saline or formulated 30 mg/kg Z36-MP5 was administered with i.p. injection once a day starting at day 6, together with i.p. injection of control IgG antibodies (10 mg/kg) or anti-PD-1 (RMP1-14, BioXCell, 10 mg/kg) on day 6, 9, 12, 15 and 18. The mice were euthanized after indicated days or when the allowable endpoint size (1 cm^3) was reached.
Tumors were minced with scissors, and then digested with the digestion buffer (RPMI 1640 medium, 5% FBS, 1% penicillin-streptomycin, 25 mM HEPES, and 300 U collagenase (Sigma C0130)) on a shaker at 37° C. for 2 hours. Single cells were prepared through a 70 m cell strainer. Erythrocytes were removed by incubation in red blood cell lysis buffer (R7757, Sigma) at room temperature for 5 min. The cells were prepared in PBS (with concentration of ˜2×10^7) for studies.
The single-cell suspension were fixed with 2% paraformaldehyde solution (J19943K2, Thermo Scientific). And then the cells were stained with the follow antibodies: anti-mouse CD45 APC (104, BD pharmingen, 561875), anti-mouse CD3e PE (145-2C11, BD pharmingen, 553063), anti-mouse CD4 FITC (RM4-5, BD pharmingen, 553046), anti-mouse CD4 PE/Cy7 (GK1.5, BioLegend, 100421), anti-mouse CD8 FITC (53-6.7, BD pharmingen, 553031), anti-mouse CD8a APC/Cy7 (53-6.7, BioLegend 100713), anti-mouse IFN-γ PE (XMG1.2, eBioscience, 12731181), anti-mouse CD69 PE (H1.2F3, Biolegend, 104508), anti-mouse CD25 Alexa Fluor 488 (PC61.5, eBioscience, 53025182), anti-mouse CD107a-V450 (1D4B, BD, 560648), anti-human/mouse granzyme B FITC (GB 11, BioLegend, 515403). The regulatory T cells in TILs were stained with the Mouse Regulatory T Cell Staining kit #1 (88-8111, ThermoFisher Scienctific), with antibodies of anti-mouse CD4 FITC (RM4-5), anti-mouse CD25 APC (PC61.5) anti-mouse Foxp3 PE (FJK-16s). BD LSRII was used for data acquisition and FlowJo was used for data analysis.

PSMC5 = target: T4, PSMC5 (Homo sapiens, UniProt P62195); test: ATPase profile (ATP acyl phosphate probe); type: binding; conditions: PSMC5, SEQ ID NO: 177, ATP BS
T4 construct: to get the native cell lysate; endogenous in cells; host or cells: A375 cell lysate

MTHFD1L = target: T5, MTHFD1L (Homo sapiens, UniProt Q6UB35); test: ATPase profile (ATP acyl phosphate probe); type: binding; conditions: SEQ ID NO: 126, ATP BS
T5 construct: to get the native cell lysate; endogenous in cells; host or cells: A375

DDX21 = target: T6, DDX21 (Homo sapiens, UniProt Q9NR30); test: ATPase profile (ATP acyl phosphate probe); type: binding; conditions: DDX21, SEQ ID NO: 67, ATP BS
T6 construct: endogenous in cells; host or cells: A375 cell lysate

LONP1 = target: T7, LONP1 (Homo sapiens, UniProt P36776); test: ATPase profile (ATP acyl phosphate probe); type: binding; conditions: LONP1, SEQ ID NO: 115, labeling site Other
T7 construct: to get the native cell lysate; endogenous in cells; host or cells: A375

NT5E = target: T8, NT5E (Homo sapiens, UniProt P21589); test: ATPase profile (ATP acyl phosphate probe); type: binding; conditions: SEQ ID NO: 140, ATP BS
T8 construct: to get the native cell lysate; endogenous in cells; host or cells: A375

TRMU = target: T9, TRMU (Homo sapiens, UniProt O75648); test: ATPase profile (ATP acyl phosphate probe); type: binding
T9 construct: to get the native cell lysate; endogenous in cells; host or cells: A375 cell lysate

TOP2A, TOP2B = test: ATPase profile (ATP acyl phosphate probe); type: binding; conditions: SEQ ID NO: 202, ATP BS
MMAB = target: T10, MMAB (Homo sapiens, UniProt Q96EY8); test: ATPase profile (ATP acyl phosphate probe); type: binding; conditions: SEQ ID NO: 124, ATP BS
T10 construct: to get the native cell lysate; endogenous in cells; host or cells: A375

UBA2 = target: T11, UBA2 (Homo sapiens, UniProt Q9UBT2); test: ATPase profile (ATP acyl phosphate probe); type: binding
T11 construct: to get the native cell lysate; endogenous in cells; host or cells: A375 cell lysate

NUDT1 = target: T12, NUDT1 (Homo sapiens, UniProt P36639); test: ATPase profile (ATP acyl phosphate probe); type: binding
T12 construct: to get the native cell lysate; endogenous in cells; host or cells: A375

NMNAT3 = target: T13, NMNAT3 (Homo sapiens, UniProt Q96T66); test: ATPase profile (ATP acyl phosphate probe); type: binding; conditions: NMNAT3, SEQ ID NO: 135, ATP BS
T13 construct: to get the native cell lysate; endogenous in cells; host or cells: A375

ATG7 = target: T14, ATG7 (Homo sapiens, UniProt O95352); test: ATPase profile (ATP acyl phosphate probe); type: binding
T14 construct: to get the native cell lysate; host or cells: A375 cell lysate

YME1L1 = target: T15, YME1L1 (Homo sapiens, UniProt Q96TA2); test: ATPase profile (ATP acyl phosphate probe); type: binding; conditions: YME1L1, SEQ ID NO: 233, ATP BS
T15 construct: to get the native cell lysate; endogenous in cells; host or cells: A375 cell lysate

UPF1 = target: T16, UPF1 (Homo sapiens, UniProt Q92900); test: ATPase profile (ATP acyl phosphate probe); type: binding
T16 construct: to get the native cell lysate; endogenous in cells; host or cells: A375 cell lysate

RFC1 = target: T17, RFC1 (Homo sapiens, UniProt P35251); test: ATPase profile (ATP acyl phosphate probe); type: binding; conditions: RFC1, SEQ ID NO: 183, ATP BS
T17 construct: to get the native cell lysate; endogenous in cells; host or cells: A375 cell lysate

PSMC3 = target: T18, PSMC3 (Homo sapiens, UniProt P17980); test: ATPase profile (ATP acyl phosphate probe); type: binding; conditions: PSMC3, SEQ ID NO: 175, ATP BS
T18 construct: to get the native cell lysate; endogenous in cells; host or cells: A375 cell lysate

MDN1 = target: T19, MDN1 (Homo sapiens, UniProt Q9NU22); test: ATPase profile (ATP acyl phosphate probe); type: binding; conditions: MDN1, SEQ ID NO: 121, ATP BS
T19 construct: to get the native cell lysate; endogenous in cells; host or cells: A375

HSP90AB1 = target: T20, HSP90AB1 (Homo sapiens, UniProt P08238); test: ATPase profile (ATP acyl phosphate probe); type: binding; conditions: HSP90AB1, SEQ ID NO: 97, ATP BS
T20 construct: to get the native cell lysate; endogenous in cells; host or cells: A375

[1] = Pharmacokinetics of Z36-MP5 in rats; type: in vivo; conditions: Sprague-Dawley rats; intraperitoneal 1.0 mg/kg
Experimental: Compound Z36-MP5 was evaluated in a pharmacokinetic study in male Sprague-Dawley (SD) rats following intraperitoneal injection of Z36-MP5 at 1.0 mg/kg as a solution in 5% DMSO, 30% PEG400, and 65% corn oil. Blood was collected at 0.25 h, 0.5 h, 1 h, 2 h, 4 h, 8 h, and 24 h following intraperitoneal injection. The blood samples were placed in wet ice, and serum was collected after centrifugation. Serum samples were frozen and stored at −80° C. The serum samples were analyzed utilizing HPLC-coupled tandem mass spectrometry (LC-MS/MS). Values are calculated from arithmetic mean plasma concentrations (n=3 rats per condition).

SLC25A24 = target: T21, SLC25A24 (Homo sapiens, UniProt Q6NUK1); test: ATPase profile (ATP acyl phosphate probe); type: binding; conditions: SLC25A24, SEQ ID NO: 192, ATP BS
T21 construct: to get the native cell lysate; endogenous in cells; host or cells: A375 cell lysate

MVK = target: T22, MVK (Homo sapiens, UniProt Q03426); test: ATPase profile (ATP acyl phosphate probe); type: binding; conditions: SEQ ID NO: 127, ATP BS
T22 construct: to get the native cell lysate; endogenous in cells; host or cells: A375

[2] = tested on: panel of 233 diverse ATPases; test: ATP acyl phosphate probe assay, ATPase profile in native A375 cell lysates; type: binding; conditions: 1 μM
[3] = Z36-MP5 30 mg/kg combined with anti-PD-1 10 mg/kg, B16F10 graft

T3 sequence (P33527 whole entry): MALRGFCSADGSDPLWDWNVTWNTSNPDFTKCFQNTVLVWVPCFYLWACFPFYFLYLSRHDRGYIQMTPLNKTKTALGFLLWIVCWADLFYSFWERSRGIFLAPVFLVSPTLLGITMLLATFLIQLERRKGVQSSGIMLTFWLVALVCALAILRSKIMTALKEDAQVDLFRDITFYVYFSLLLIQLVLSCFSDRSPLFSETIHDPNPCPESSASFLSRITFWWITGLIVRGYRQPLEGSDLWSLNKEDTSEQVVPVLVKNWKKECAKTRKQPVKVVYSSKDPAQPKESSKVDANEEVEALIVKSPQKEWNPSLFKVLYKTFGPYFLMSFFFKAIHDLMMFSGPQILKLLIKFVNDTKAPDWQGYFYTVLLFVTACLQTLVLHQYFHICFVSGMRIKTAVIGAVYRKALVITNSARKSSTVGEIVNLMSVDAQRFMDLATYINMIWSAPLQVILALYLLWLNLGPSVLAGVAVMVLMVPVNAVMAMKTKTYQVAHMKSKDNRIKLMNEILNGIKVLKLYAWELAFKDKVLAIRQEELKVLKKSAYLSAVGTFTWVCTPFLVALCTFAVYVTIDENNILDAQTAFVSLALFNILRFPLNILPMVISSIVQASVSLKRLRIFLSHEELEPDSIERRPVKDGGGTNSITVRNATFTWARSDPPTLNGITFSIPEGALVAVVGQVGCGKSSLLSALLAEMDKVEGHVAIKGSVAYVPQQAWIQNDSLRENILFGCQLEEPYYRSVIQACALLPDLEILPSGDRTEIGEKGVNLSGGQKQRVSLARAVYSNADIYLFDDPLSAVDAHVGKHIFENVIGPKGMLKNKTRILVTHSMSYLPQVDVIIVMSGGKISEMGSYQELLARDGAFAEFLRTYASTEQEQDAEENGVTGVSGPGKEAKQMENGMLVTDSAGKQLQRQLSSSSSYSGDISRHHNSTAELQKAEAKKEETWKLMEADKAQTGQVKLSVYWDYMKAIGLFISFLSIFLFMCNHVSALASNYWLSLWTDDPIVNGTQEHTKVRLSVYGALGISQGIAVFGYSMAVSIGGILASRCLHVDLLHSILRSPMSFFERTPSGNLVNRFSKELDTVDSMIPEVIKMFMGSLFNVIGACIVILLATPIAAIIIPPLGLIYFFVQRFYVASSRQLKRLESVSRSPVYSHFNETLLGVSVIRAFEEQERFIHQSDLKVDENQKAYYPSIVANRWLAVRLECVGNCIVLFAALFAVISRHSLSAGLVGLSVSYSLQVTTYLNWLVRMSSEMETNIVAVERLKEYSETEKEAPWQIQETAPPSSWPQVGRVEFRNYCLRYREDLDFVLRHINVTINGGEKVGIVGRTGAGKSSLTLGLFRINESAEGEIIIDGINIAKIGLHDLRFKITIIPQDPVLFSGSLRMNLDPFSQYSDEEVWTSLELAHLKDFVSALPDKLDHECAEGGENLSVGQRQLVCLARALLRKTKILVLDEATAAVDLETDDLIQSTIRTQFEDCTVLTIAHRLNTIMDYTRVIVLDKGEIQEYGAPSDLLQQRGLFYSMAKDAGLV
T16 sequence (Q92900 whole entry): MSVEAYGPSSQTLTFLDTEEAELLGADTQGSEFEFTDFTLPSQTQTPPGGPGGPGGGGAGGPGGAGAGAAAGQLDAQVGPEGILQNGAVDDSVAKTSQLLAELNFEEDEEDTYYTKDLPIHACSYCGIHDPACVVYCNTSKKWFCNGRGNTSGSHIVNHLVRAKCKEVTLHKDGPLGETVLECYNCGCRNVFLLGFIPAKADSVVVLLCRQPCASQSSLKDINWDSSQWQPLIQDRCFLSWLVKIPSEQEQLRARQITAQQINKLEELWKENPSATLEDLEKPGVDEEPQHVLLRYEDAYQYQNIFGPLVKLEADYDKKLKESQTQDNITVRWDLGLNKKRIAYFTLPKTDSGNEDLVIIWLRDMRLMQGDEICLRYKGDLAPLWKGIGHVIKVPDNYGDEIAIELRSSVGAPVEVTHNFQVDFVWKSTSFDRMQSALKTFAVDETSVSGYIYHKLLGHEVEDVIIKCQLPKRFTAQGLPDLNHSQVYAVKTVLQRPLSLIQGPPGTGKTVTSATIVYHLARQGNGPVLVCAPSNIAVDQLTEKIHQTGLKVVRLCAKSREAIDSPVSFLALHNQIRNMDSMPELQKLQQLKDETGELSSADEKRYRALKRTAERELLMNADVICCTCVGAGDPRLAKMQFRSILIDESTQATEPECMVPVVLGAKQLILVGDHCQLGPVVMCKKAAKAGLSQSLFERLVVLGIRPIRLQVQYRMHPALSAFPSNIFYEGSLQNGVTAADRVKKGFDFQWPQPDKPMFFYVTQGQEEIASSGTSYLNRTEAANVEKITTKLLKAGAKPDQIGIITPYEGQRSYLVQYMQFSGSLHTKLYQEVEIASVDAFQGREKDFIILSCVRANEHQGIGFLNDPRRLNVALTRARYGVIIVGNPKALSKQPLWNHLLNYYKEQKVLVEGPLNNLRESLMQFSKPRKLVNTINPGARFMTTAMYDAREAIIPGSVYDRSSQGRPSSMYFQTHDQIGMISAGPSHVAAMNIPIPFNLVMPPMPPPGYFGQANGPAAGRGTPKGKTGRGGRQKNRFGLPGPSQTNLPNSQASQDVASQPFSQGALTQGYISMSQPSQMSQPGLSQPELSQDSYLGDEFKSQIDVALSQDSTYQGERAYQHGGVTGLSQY
T14 sequence (O95352 whole entry): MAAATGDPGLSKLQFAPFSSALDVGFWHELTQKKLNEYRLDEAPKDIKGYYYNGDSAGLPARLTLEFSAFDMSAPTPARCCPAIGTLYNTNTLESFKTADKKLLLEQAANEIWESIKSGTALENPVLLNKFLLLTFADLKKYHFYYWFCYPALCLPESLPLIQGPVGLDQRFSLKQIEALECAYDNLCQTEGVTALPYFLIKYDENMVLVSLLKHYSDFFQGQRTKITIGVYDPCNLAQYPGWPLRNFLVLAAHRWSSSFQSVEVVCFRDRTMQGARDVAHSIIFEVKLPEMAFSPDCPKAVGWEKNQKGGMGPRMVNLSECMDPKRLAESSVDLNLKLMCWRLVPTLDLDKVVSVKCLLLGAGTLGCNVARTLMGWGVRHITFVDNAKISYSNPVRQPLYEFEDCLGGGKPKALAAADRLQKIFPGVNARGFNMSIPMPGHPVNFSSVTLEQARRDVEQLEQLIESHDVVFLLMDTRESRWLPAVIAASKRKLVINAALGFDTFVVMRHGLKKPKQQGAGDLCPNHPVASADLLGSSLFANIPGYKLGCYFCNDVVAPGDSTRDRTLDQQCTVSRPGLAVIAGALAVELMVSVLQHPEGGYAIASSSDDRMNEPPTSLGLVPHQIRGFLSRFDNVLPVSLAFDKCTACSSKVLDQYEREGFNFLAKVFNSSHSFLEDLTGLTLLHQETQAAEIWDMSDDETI
T9 sequence (O75648 whole entry): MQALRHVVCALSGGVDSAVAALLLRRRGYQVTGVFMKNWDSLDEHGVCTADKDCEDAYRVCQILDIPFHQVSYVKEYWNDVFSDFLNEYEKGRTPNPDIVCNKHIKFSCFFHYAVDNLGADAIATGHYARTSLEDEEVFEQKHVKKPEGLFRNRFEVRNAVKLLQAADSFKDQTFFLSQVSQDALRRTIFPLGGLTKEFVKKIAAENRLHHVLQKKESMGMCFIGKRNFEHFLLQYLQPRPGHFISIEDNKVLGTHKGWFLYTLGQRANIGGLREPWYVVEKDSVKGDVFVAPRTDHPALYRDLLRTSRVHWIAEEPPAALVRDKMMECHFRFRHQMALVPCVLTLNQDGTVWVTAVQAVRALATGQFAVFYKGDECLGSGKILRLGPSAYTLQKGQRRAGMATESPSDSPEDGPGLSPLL
T11 sequence (Q9UBT2 whole entry): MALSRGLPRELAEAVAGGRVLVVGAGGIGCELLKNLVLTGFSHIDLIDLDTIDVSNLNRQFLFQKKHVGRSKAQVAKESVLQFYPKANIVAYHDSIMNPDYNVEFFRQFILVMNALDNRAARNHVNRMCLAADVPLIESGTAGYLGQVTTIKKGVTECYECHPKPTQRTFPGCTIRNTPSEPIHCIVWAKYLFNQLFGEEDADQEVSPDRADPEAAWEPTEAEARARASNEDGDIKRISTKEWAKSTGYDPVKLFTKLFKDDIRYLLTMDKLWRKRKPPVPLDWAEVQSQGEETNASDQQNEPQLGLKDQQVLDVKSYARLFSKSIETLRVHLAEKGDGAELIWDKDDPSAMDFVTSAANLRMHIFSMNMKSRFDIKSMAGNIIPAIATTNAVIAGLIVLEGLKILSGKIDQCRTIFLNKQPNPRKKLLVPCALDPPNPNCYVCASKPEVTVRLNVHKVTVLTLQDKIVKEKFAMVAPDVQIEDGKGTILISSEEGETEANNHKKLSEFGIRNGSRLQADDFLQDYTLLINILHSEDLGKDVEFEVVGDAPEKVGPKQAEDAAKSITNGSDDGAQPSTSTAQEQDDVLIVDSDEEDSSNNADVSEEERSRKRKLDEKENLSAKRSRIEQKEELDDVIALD
T11 sequence (Q9UBE0 whole entry partner): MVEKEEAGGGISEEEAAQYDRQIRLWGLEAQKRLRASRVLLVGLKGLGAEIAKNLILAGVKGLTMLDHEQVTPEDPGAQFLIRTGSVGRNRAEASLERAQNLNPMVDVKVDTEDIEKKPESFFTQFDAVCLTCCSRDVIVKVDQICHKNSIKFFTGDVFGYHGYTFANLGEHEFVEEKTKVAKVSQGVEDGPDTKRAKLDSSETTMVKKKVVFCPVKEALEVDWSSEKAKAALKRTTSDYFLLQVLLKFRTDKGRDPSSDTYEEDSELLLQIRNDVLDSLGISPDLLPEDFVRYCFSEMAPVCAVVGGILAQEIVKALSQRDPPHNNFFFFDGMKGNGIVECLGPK
T13 sequence (Q96T66 whole entry): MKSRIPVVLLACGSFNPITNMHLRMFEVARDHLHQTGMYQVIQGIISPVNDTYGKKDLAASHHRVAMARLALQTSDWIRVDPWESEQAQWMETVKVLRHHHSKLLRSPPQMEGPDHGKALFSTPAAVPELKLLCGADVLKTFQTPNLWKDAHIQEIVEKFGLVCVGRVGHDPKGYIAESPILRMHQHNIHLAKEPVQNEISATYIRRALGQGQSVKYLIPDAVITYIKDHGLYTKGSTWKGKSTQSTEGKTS

Question: Which “Inhibition (%) by 1 μM Z36-MP5” value (NOP2) does the source give for `Cn1c(=O)[nH]c2ccc(-c3cccc(C(=O)NC4CCn5ccnc5C4)c3)cc21` (stereo not shown) [Z36-MP5, 3-(3-methyl-2-oxo-2,3-dihydro-1H-benzo[d]imidazol-5-yl)-N-(5,6,7,8-tetrahydroimidazo[1,2-a]pyridin-7-yl)benzamide] here?
Answer: The value was 1.98%.

Question: And the “Inhibition (%) by 1 μM Z36-MP5” value (NARS)?
Answer: The value was 2.36%.

Question: And the “Inhibition (%) by 1 μM Z36-MP5” value (ABCC1; ABCC1, SEQ ID NO: 5, ATP BS)?
Answer: Its value is −0.23%.

Question: And the “Inhibition (%) by 1 μM Z36-MP5” value (ABCC1; ABCC1, SEQ ID NO: 6, ATP BS)?
Answer: Its value is −7.84%.

Question: What about the mouse survival (B16F10 melanoma graft; [3]) of the same compound?
Answer: Its mouse survival is “extended mouse survival”.

Question: And the tumor growth (B16F10 melanoma graft; [3])?
Answer: Its tumor growth is “substantial inhibition”.

Question: What about the “GZMB expression and activation markers CD69, IFN-γ, CD25 and CD107 in tumor-infiltrating CD8+ T cells” value (B16F10 melanoma graft; Z36-MP5 alone) of the same compound?
Answer: The value was “upregulation”.

Question: What about the “CD8+ T cell TILs” value (B16F10 melanoma graft; Z36-MP5 alone, graft melanomas) of the same compound?
Answer: Its value is “moderate increase”.

Question: And the “GZMB expression and activation markers CD69, IFN-γ, CD25 and CD107 in tumor-infiltrating CD8+ T cells” value (B16F10 melanoma graft; Z36-MP5 combined with anti-PD-1)?
Answer: Its value is “augmented”.

Question: What about the “CD8+ T cell TILs” value (B16F10 melanoma graft; Z36-MP5 combined with anti-PD-1, graft melanomas) of the same compound?
Answer: The value was “augmented”.

Question: What about the “population of CD4+ T cell and Treg cells” value (B16F10 melanoma graft; individual or combinational treatments, graft melanomas) of the same compound?
Answer: Its value is “not changed significantly”.

Question: And the “tumor growth or mouse survival” value (B16F10 melanoma graft; treatment alone, B16F10 graft)?
Answer: Its value is “did not impact”.

Question: What about the “Inhibition (%) by 1 μM Z36-MP5” value (PSMC5) of the same compound?
Answer: The value was −3.98%.

Question: And the “Inhibition (%) by 1 μM Z36-MP5” value (MTHFD1L)?
Answer: Its value is 1.16%.

Question: What about the “Inhibition (%) by 1 μM Z36-MP5” value (DDX21) of the same compound?
Answer: The value was 3.05%.

Question: What about the “Inhibition (%) by 1 μM Z36-MP5” value (LONP1) of the same compound?
Answer: Its value is 1.81%.

Question: And the “Inhibition (%) by 1 μM Z36-MP5” value (NT5E)?
Answer: Its value is −9.95%.

Question: And the “Inhibition (%) by 1 μM Z36-MP5” value (TRMU; SEQ ID NO: 211, ATP BS)?
Answer: Its value is −13.98%.

Question: And the “Inhibition (%) by 1 μM Z36-MP5” value (TRMU; SEQ ID NO: 212, ATP BS)?
Answer: The value was −2.57%.

Question: What about the “Inhibition (%) by 1 μM Z36-MP5” value (TOP2A, TOP2B) of the same compound?
Answer: Its value is 11.93%.

Question: And the “Inhibition (%) by 1 μM Z36-MP5” value (MMAB)?
Answer: Its value is −4.08%.

Question: What about the “Inhibition (%) by 1 μM Z36-MP5” value (UBA2; UBA2, SEQ ID NO: 218, ATP BS) of the same compound?
Answer: Its value is 0.55%.

Question: What about the “Inhibition (%) by 1 μM Z36-MP5” value (UBA2; UBA2, SEQ ID NO: 219, ATP BS) of the same compound?
Answer: The value was 7.64%.

Question: And the “Inhibition (%) by 1 μM Z36-MP5” value (NUDT1; NUDT1, SEQ ID NO: 142, ATP BS)?
Answer: Its value is 25.70%.

Question: What about the “Inhibition (%) by 1 μM Z36-MP5” value (NUDT1; NUDT1, SEQ ID NO: 143, ATP BS) of the same compound?
Answer: The value was 22.17%.

Question: What about the “Inhibition (%) by 1 μM Z36-MP5” value (NUDT1; NUDT1, SEQ ID NO: 144, ATP BS) of the same compound?
Answer: The value was 18.32%.

Question: And the “Inhibition (%) by 1 μM Z36-MP5” value (NMNAT3)?
Answer: The value was 9.62%.

Question: And the “Inhibition (%) by 1 μM Z36-MP5” value (ATG7; ATG7, SEQ ID NO: 45, ATP BS)?
Answer: The value was −0.18%.

Question: What about the “Inhibition (%) by 1 μM Z36-MP5” value (ATG7; ATG7, SEQ ID NO: 46, ATP BS) of the same compound?
Answer: The value was −6.20%.

Question: And the “Inhibition (%) by 1 μM Z36-MP5” value (YME1L1)?
Answer: The value was −10.37%.

Question: What about the “Inhibition (%) by 1 μM Z36-MP5” value (UPF1; UPF1, SEQ ID NO: 223, ATP BS) of the same compound?
Answer: The value was −1.93%.

Question: And the “Inhibition (%) by 1 μM Z36-MP5” value (UPF1; UPF1, SEQ ID NO: 224, ATP BS)?
Answer: The value was −3.51%.

Question: And the “Inhibition (%) by 1 μM Z36-MP5” value (RFC1)?
Answer: Its value is −12.52%.

Question: And the “Inhibition (%) by 1 μM Z36-MP5” value (PSMC3)?
Answer: The value was 5.71%.

Question: And the “Inhibition (%) by 1 μM Z36-MP5” value (MDN1)?
Answer: Its value is 3.28%.

Question: What about the “Inhibition (%) by 1 μM Z36-MP5” value (HSP90AB1) of the same compound?
Answer: Its value is −3.22%.

Question: And the “half-life T1/2” value [1]?
Answer: The value was 27 min.

Question: What about the “Inhibition (%) by 1 μM Z36-MP5” value (SLC25A24) of the same compound?
Answer: Its value is 11.88%.

Question: And the “Inhibition (%) by 1 μM Z36-MP5” value (MVK)?
Answer: Its value is 15.38%.

Question: And the “inhibition against a panel of 233 diverse ATPases” value [2]?
Answer: Its value is “less than 35%”.
